Measured values from PubChem BioAssay (NCI).
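Each compound was tested at five concentrations against cells in 96-well plates for 48 hours. GI50 is the concentration that inhibits growth by half. At the TGI there is no net growth.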

What was measured:
Experiment in all cases: NCI anticancer screen, dose series, 48 h
KM12 colon = system: KM12 colon
HL-60(TB) leukemia = system: HL-60(TB) leukemia
CAKI-1 renal = system: CAKI-1 renal
NCI-H522 lung = system: NCI-H522 lung
SF-539 CNS = system: SF-539 CNS
UO-31 renal = system: UO-31 renal
SF-295 CNS = system: SF-295 CNS
SR leukemia = system: SR leukemia
HCT-116 colon = system: HCT-116 colon
UACC-62 melanoma = system: UACC-62 melanoma

| SMILES | TGI (KM12 colon) [µM] | TGI (HL-60(TB) leukemia) [µM] | TGI (CAKI-1 renal) [µM] | TGI (NCI-H522 lung) [µM] | TGI (SF-539 CNS) [µM] | TGI (UO-31 renal) [µM] | TGI (SF-295 CNS) [µM] | TGI (SR leukemia) [µM] | TGI (HCT-116 colon) [µM] | TGI (UACC-62 melanoma) [µM] | GI50 (KM12 colon) [µM] | GI50 (HCT-116 colon) [µM] | GI50 (HL-60(TB) leukemia) [µM] | GI50 (SF-295 CNS) [µM] | GI50 (CAKI-1 renal) [µM] | GI50 (SR leukemia) [µM] | GI50 (NCI-H522 lung) [µM] | GI50 (UACC-62 melanoma) [µM] | GI50 (SF-539 CNS) [µM] | GI50 (UO-31 renal) [µM] |
| --- | --- | --- | --- | --- | --- | --- | --- | --- | --- | --- | --- | --- | --- | --- | --- | --- | --- | --- | --- | --- |
| CCOC(=O)Cn1c(=O)c(C)cn(COCCO)c1=O | > 100 | > 100 | > 100 | > 100 | > 100 | > 100 |  |  |  |  |  |  |  |  |  |  |  |  |  |  |
| COC(=O)C1c2cc3c(c(O)c2C(O)CC1(C)O)C(=O)c1c(O)cc2c(c1C3=O)OC1OC2(C)C(O)C(N(C)C)C1O (stereo not drawn) | > 19.9 | > 24.9 | 14.2 |  |  |  | > 100 | > 100 |  |  |  |  |  |  |  |  |  |  |  |  |
| CCOC(C)OC1CC(n2cc(C)c(=O)[nH]c2=O)OC1CO (stereo not drawn) | > 100 | > 100 |  | > 100 | > 100 | > 100 | > 100 | > 100 | > 100 |  |  |  |  |  |  |  |  |  |  |  |
| CN/N=C(\C(=O)Nc1ccc(C)c(C)c1)C(C(=O)OC)c1nc2ccc([N+](=O)[O-])cc2[nH]c1=O (stereo not drawn) | > 100 | > 100 | > 100 | 70.9 | > 100 | > 100 | > 100 | > 100 | > 100 | > 100 |  |  |  |  |  |  |  |  |  |  |
| COc1ccc(C2=NC(c3ccc(Cl)cc3)C(c3ccc(Cl)cc3)N2C(=O)N2CCNC(=O)C2)c(OC(C)C)c1 (stereo not drawn) | 3.69 | > 10 | 3.22 | 4.09 | 4.01 |  | 3.38 | 5.89 | 3.2 | 3.4 | 1.84 | 1.81 | 3.62 | 1.81 | 1.8 | 2.33 | 2.09 | 1.9 | 2.02 |  |
| CCN(CC)CCO[Si](OCCN(CC)CC)(OCCN(CC)CC)OCCN(CC)CC | > 100 |  | > 100 |  | > 100 | > 100 | > 100 | > 100 |  | > 100 |  |  |  |  |  |  |  |  |  |  |
| O=C(CCC1CCCCN1)Nc1ccc2c(c1)C(=O)c1ccc(NC(=O)CCN3CCCCC3)cc1C2=O (stereo not drawn) | 6.99 |  | 5.61 |  | 8.46 | 2.68 | 20.8 | > 100 | 4.96 |  |  |  |  |  |  |  |  |  |  |  |
| C(=C/c1nc2ccccc2o1)/c1ccc2c(c1)OCO2 | 26.1 | > 96.5 | 40 | 51.3 | 34.6 | 49.5 | 23.1 |  | 33.3 | > 45.5 |  |  |  |  |  |  |  |  |  |  |
| C=C(C)[C@@H]1CC[C@]2(CO)CC[C@]3(C)[C@H](CC[C@@H]4[C@@]5(C)CC[C@H](NCO)C(C)(C)[C@@H]5CC[C@]43C)[C@@H]12 | 1.63 | 2.32 | 1.59 | 2.01 | 1.52 | 1.35 | 1.58 |  |  | 1.63 | 0.886 |  | 1 | 0.873 | 0.882 |  | 1.03 | 0.918 | 0.826 | 0.703 |
| CC1OC(=O)C(C(C)C)NC(=O)C(C(C)C)OC(=O)C(C(C)C)NC(=O)C(C)OC(=O)C(C(C)C)NC(=O)C(C(C)C)OC(=O)C(C(C)C)NC(=O)C(C)OC(=O)C(C(C)C)NC(=O)C(C(C)C)OC(=O)C(C(C)C)NC1=O (stereo not drawn) |  |  | 0.00345 | < 0.0001 | 0.328 | 0.0541 |  |  | 2.91 | 5.58 | < 0.0001 |  | < 0.0001 | < 0.0001 |  |  | < 0.0001 | < 0.0001 | 0.000484 |  |
